# Several values for one entry are separate records, joined by “and”; a condition that tells them apart may be missing. Identical values can stand only once.
# Tested on: human PBMCs
# Experiment: LPS-induced cytokine and chemokine levels in human PBMC supernatant (Luminex, ELISA)
# Format: cell-based
# Details: for TNF-α [pg/mL], Mean / TNF-α [pg/mL], individual value / GM-CSF % reduction / GM-CSF [pg/mL], Mean / GM-CSF [pg/mL], individual value / IL-1β % reduction / IL-1β [pg/mL], Mean / IL-1β [pg/mL], individual value / IL-6 % reduction / IL-6 [pg/mL], Mean / IL-6 [pg/mL], individual value / IL-8 % reduction / IL-8 [pg/mL], Mean / IL-8 [pg/mL], individual value / TNF-α % reduction: LPS-stimulated human PBMC supernatant
compound,measurement,setting,value
CC[C@H]1OC(=O)[C@H](C)[C@@H](O[C@H]2C[C@@](C)(OC)[C@@H](O)[C@H](C)O2)[C@H](C)[C@@H](O[C@@H]2O[C@H](C)C[C@H](N(C)C)[C@H]2O)[C@](C)(O)C[C@@H](C)CN(C)[C@H](C)[C@@H](O)[C@]1(C)O [Azithromycin],"TNF-α [pg/mL], Mean",0.03 µM,11102 pg/mL
same,"TNF-α [pg/mL], individual value",0.03 µM,10517 pg/mL and 11687 pg/mL
same,GM-CSF % reduction,0.1 µM,8%
same,"GM-CSF [pg/mL], Mean",0.1 µM,606 pg/mL
same,"GM-CSF [pg/mL], individual value",0.1 µM,616 pg/mL and 597 pg/mL
same,IL-1β % reduction,0.1 µM,7%
same,"IL-1β [pg/mL], Mean",0.1 µM,11909 pg/mL
same,"IL-1β [pg/mL], individual value",0.1 µM,12184 pg/mL and 11633 pg/mL
same,IL-6 % reduction,0.1 µM,10%
same,"IL-6 [pg/mL], Mean",0.1 µM,31536 pg/mL
same,"IL-6 [pg/mL], individual value",0.1 µM,30929 pg/mL and 32144 pg/mL
same,IL-8 % reduction,0.1 µM,-3.72%
same,"IL-8 [pg/mL], Mean",0.1 µM,3056 pg/mL
same,"IL-8 [pg/mL], individual value",0.1 µM,3040 pg/mL and 3071 pg/mL
same,TNF-α % reduction,0.1 µM,8%
same,"TNF-α [pg/mL], Mean",0.1 µM,8220 pg/mL
same,"TNF-α [pg/mL], individual value",0.1 µM,7335 pg/mL and 9106 pg/mL
same,GM-CSF % reduction,0.3 µM,3.39%
same,"GM-CSF [pg/mL], Mean",0.3 µM,635 pg/mL
same,"GM-CSF [pg/mL], individual value",0.3 µM,650 pg/mL and 620 pg/mL
same,IL-1β % reduction,0.3 µM,5%
same,"IL-1β [pg/mL], Mean",0.3 µM,12146 pg/mL
same,"IL-1β [pg/mL], individual value",0.3 µM,12820 pg/mL and 11473 pg/mL
same,IL-6 % reduction,0.3 µM,8%
same,"IL-6 [pg/mL], Mean",0.3 µM,32119 pg/mL
same,"IL-6 [pg/mL], individual value",0.3 µM,32538 pg/mL and 31700 pg/mL
same,IL-8 % reduction,0.3 µM,-0.427%
same,"IL-8 [pg/mL], Mean",0.3 µM,3002 pg/mL
same,"IL-8 [pg/mL], individual value",0.3 µM,2940 pg/mL and 3064 pg/mL
same,TNF-α % reduction,0.3 µM,8%
same,"TNF-α [pg/mL], Mean",0.3 µM,8210 pg/mL
same,"TNF-α [pg/mL], individual value",0.3 µM,7975 pg/mL and 8445 pg/mL
same,GM-CSF % reduction,1 µM,6.38%
same,"GM-CSF [pg/mL], Mean",1 µM,616 pg/mL
same,"GM-CSF [pg/mL], individual value",1 µM,634 pg/mL and 597 pg/mL
same,IL-1β % reduction,1 µM,4%
same,"IL-1β [pg/mL], Mean",1 µM,12252 pg/mL
same,"IL-1β [pg/mL], individual value",1 µM,12213 pg/mL and 12291 pg/mL
same,IL-6 % reduction,1 µM,-4.52%
same,"IL-6 [pg/mL], Mean",1 µM,36486 pg/mL
same,"IL-6 [pg/mL], individual value",1 µM,36508 pg/mL and 36463 pg/mL
same,IL-8 % reduction,1 µM,0.166%
same,"IL-8 [pg/mL], Mean",1 µM,2992 pg/mL
same,"IL-8 [pg/mL], individual value",1 µM,2945 pg/mL and 3040 pg/mL
same,TNF-α % reduction,1 µM,-33%
same,"TNF-α [pg/mL], Mean",1 µM,11913 pg/mL
same,"TNF-α [pg/mL], individual value",1 µM,11577 pg/mL and 12250 pg/mL
same,GM-CSF % reduction,3 µM,-8.5%
same,"GM-CSF [pg/mL], Mean",3 µM,713 pg/mL
same,"GM-CSF [pg/mL], individual value",3 µM,735 pg/mL and 692 pg/mL
same,IL-1β % reduction,3 µM,-0.234%
same,"IL-1β [pg/mL], Mean",3 µM,12815 pg/mL
same,"IL-1β [pg/mL], individual value",3 µM,12810 pg/mL and 12820 pg/mL
same,IL-6 % reduction,3 µM,4%
same,"IL-6 [pg/mL], Mean",3 µM,33458 pg/mL
same,"IL-6 [pg/mL], individual value",3 µM,33827 pg/mL and 33090 pg/mL
same,IL-8 % reduction,3 µM,-3.25%
same,"IL-8 [pg/mL], Mean",3 µM,3048 pg/mL
same,"IL-8 [pg/mL], individual value",3 µM,3040 pg/mL and 3056 pg/mL
same,TNF-α % reduction,3 µM,-13%
same,"TNF-α [pg/mL], Mean",3 µM,10076 pg/mL
same,"TNF-α [pg/mL], individual value",3 µM,10741 pg/mL and 9410 pg/mL
same,GM-CSF % reduction,10 µM,-18%
same,"GM-CSF [pg/mL], Mean",10 µM,778 pg/mL
same,"GM-CSF [pg/mL], individual value",10 µM,790 pg/mL and 767 pg/mL
same,IL-1β % reduction,10 µM,6%
same,"IL-1β [pg/mL], Mean",10 µM,12046 pg/mL
same,"IL-1β [pg/mL], individual value",10 µM,12362 pg/mL and 11731 pg/mL
same,IL-6 % reduction,10 µM,4.69%
same,"IL-6 [pg/mL], Mean",10 µM,33270 pg/mL
same,"IL-6 [pg/mL], individual value",10 µM,35180 pg/mL and 31360 pg/mL
same,IL-8 % reduction,10 µM,7.45%
same,"IL-8 [pg/mL], Mean",10 µM,2874 pg/mL
same,"IL-8 [pg/mL], individual value",10 µM,2884 pg/mL and 2864 pg/mL
same,TNF-α % reduction,10 µM,-22%
same,"TNF-α [pg/mL], Mean",10 µM,10907 pg/mL
same,"TNF-α [pg/mL], individual value",10 µM,11897 pg/mL and 9917 pg/mL
same,GM-CSF % reduction,30 µM,-64%
same,"GM-CSF [pg/mL], Mean",30 µM,1076 pg/mL
same,"GM-CSF [pg/mL], individual value",30 µM,1120 pg/mL and 1032 pg/mL
same,IL-1β % reduction,30 µM,22%
same,"IL-1β [pg/mL], Mean",30 µM,10027 pg/mL
same,"IL-1β [pg/mL], individual value",30 µM,10517 pg/mL and 9538 pg/mL
same,IL-6 % reduction,30 µM,2.66%
same,"IL-6 [pg/mL], Mean",30 µM,33980 pg/mL
same,"IL-6 [pg/mL], individual value",30 µM,33792 pg/mL and 34168 pg/mL
same,IL-8 % reduction,30 µM,5%
same,"IL-8 [pg/mL], Mean",30 µM,2917 pg/mL
same,"IL-8 [pg/mL], individual value",30 µM,2925 pg/mL and 2908 pg/mL
same,TNF-α % reduction,30 µM,-21%
same,"TNF-α [pg/mL], Mean",30 µM,10839 pg/mL
same,"TNF-α [pg/mL], individual value",30 µM,10668 pg/mL and 11009 pg/mL
same,GM-CSF % reduction,100 µM,-161%
same,"GM-CSF [pg/mL], Mean",100 µM,1715 pg/mL
same,"GM-CSF [pg/mL], individual value",100 µM,1713 pg/mL and 1717 pg/mL
same,IL-1β % reduction,100 µM,51%
same,"IL-1β [pg/mL], Mean",100 µM,6242 pg/mL
same,"IL-1β [pg/mL], individual value",100 µM,5956 pg/mL and 6528 pg/mL
same,IL-6 % reduction,100 µM,23%
same,"IL-6 [pg/mL], Mean",100 µM,27053 pg/mL
same,"IL-6 [pg/mL], individual value",100 µM,26301 pg/mL and 27804 pg/mL
same,"IL-8 [pg/mL], Mean",100 µM,2975 pg/mL
same,"IL-8 [pg/mL], individual value",100 µM,2977 pg/mL and 2972 pg/mL
same,TNF-α % reduction,100 µM,17%
same,"TNF-α [pg/mL], Mean",100 µM,7409 pg/mL
same,"TNF-α [pg/mL], individual value",100 µM,6229 pg/mL and 8589 pg/mL
same,"levels of the measured LPS-induced cytokines, chemokines, or MMP-9 in supernatants","human PBMCs, concentrations tested (100 μM not shown)",little to no reduction

# Reference: article PMC8480901 (PLoS ONE, 2021)
